# According to patent US10542745B2, “Portable device for ex vivo stimulation of whole blood” (Hitachi Chemical Co., Ltd., priority 2010, dated 2020):
# Columns and labels:
# Type in all cases: cell-based
# blood [1] = assay: Ex vivo stimulation of blood in strip wells, then 4° C. storage; ACTB, p21 and PUMA mRNA quantified; conditions: for levels of both p21 and PUMA after 3 days of post-stimulation storage: stored at 4° C. for 3 days after stimulation, higher Ct values
# Protocol: (§1) Briefly, 96-well filterplates were assembled with leukocyte reduction membranes (Leukosorb; Pall) and placed over oligo(dT)-immobilized collection plates. 150 μL of 5 mmol/L Tris (pH 7.4) was applied to wet the filter membranes. After centrifugation at 120 g for 1 min at 4° C. to remove the Tris solution from the membranes, 50 μL of the stimulated whole blood samples was applied to each well and immediately centrifuged at 120 g for 2 min at 4° C. The wells were then washed once with 300 μL of phosphate-buffered saline. After centrifugation at 2000 g for 5 min at 4° C. to remove the saline solution, 60 μL of stock lysis buffer [5 g/L N-lauroylsarcosine, 4× standard saline citrate, 10 mmol/L Tris-HCl (pH 7.4), 1 mmol/L EDTA, 1 mL/L IGEPAL CA-630 (substitute of NP-40), 1.79 mol/L guanidine thiocyanate (all from Sigma)], supplemented with 10 mL/L 2-mercaptoethanol (Bio-Rad), 0.5 g/L proteinase K (Pierce), 0.1 g/L salmon sperm DNA (5 Prime Eppendorf/Brinkman), 0.1 g/L Escherichia coli tRNA (Sigma), 5 nmol/L each of the specific reverse primers, and 10^10 molecules/L of synthetic RNA34 (as external control), was added to each well of the filterplates. The plates were then incubated at 37° C. for 10 min, placed over oligo(dT)-immobilized collection microplates (GenePlate; RNAture), and centrifuged at 2000 g for 5 min at 4° C. After overnight storage at 4° C., the microplates were washed 3 times with 100 μL of plain lysis buffer and then 3 times with 150 μL of wash buffer [0.5 mol/L NaCl, 10 mmol/L Tris (pH 7.4) 1 mmol/L EDTA] at 4° C.
# cDNA was synthesized directly in each well by addition of 30 μL of buffer containing 1× reverse transcription buffer [50 mM KCl, 10 mM Tris-HCl (pH 8.3), 5.5 mM MgCl2, 1 nL/μL Tween 20], 1.25 mM each deoxynucleoside triphosphate, 4 units of rRNasin, and 80 U of MMLV reverse transcriptase (Promega; without primers) and incubation at 37° C. for 2 h. From each 30-μL reaction, 4 μL of cDNA was transferred directly to 384-well PCR plates, and 5 μL of TaqMan universal master mixture (Applied Biosystems) and 1 μL of 5 μM each of the forward and reverse primers for each mRNA or beta-actin were added. PCR was carried out in a PRISM 7900HT (Applied Biosystems), with 1 cycle of 95° C. for 10 min followed by 45 cycles of 95° C. for 30 s, 55° C. for 30 s, and 60° C. for 1 min. Each gene was amplified in separate wells. The cycle threshold (Ct), i.e., the cycle at which certain amounts of PCR products (based on fluorescence) were generated, was determined with analytical software (SDS; Applied Biosystems). The ΔCt were determined by subtracting each Ct of PHA-treated sample from each Ct of PBS-treated control sample, and the fold increase was calculated by 2^-ΔCt.
# In order to evaluate the stability of samples after stimulation, blood was stimulated with DNR (10 μM in final concentration), AraC (100 μM in final concentration), or PBS in strip wells for 4 hours at 37° C., and then stored at 4° C. for 0-3 days. After the 4° C. incubation, the samples were stored in a −80° C. freezer until analysis. These experimental conditions are designed to represent the possible conditions a sample would be exposed to during transport in the portable incubation devices described herein. Three mRNAs (ACTB, p21, and PUMA) were quantified as described above.
# blood [2] = assay: Induction of IL2 or CXCL9 after incubation in the portable device vs controlled incubators; conditions: FIGS. 13A and 13B
# Protocol: FIGS. 13A and 13B depict a comparison of the level of induction of 1L2 or CXCL9 when stimulated by PHA or IFN alpha and then incubated in the portable device disclosed herein or in controlled incubators (at a variety of temperatures). […] This again represents the degree of flexibility in temperatures and times that can be used (as disclosed above) to perform ex vivo stimulation of blood samples.
# blood [3] = assay: IFNa2b stimulation of blood: vacuum tube vs multi-well strip, immediate vs delayed
# Protocol: as §1, with “After overnight storage at 4° C., the microplates were washed 3 times with 100 μL of plain lysis buffer and then 3 times with 150 μL of wash buffer [0.5 mol/L NaCl, 10 mmol/L Tris (pH 7.4) 1 mmol/L EDTA] at 4° C.” left out
# cDNA was synthesized directly in each well by addition of 30 μL of buffer containing 1× reverse transcription buffer [50 mM KCl, 10 mM Tris-HCl (pH 8.3), 5.5 mM MgCl2, 1 nL/μL Tween 20], 1.25 mM each deoxynucleoside triphosphate, 4 units of rRNasin, and 80 U of MMLV reverse transcriptase (Promega; without primers) and incubation at 37° C. for 2 h. […] The cycle threshold (Ct), i.e., the cycle at which certain amounts of PCR products (based on fluorescence) were generated, was determined with analytical software (SDS; Applied Biosystems). The ΔCt were determined by subtracting each Ct of PHA-treated sample from each Ct of PBS-treated control sample, and the fold increase was calculated by 2^-ΔCt. […]
# blood [4] = assay: Time course of mRNA induction in blood at two incubation temperatures (ACTB, IL2, CXCL9); conditions: strip wells, 42° C. vs 37° C., 0-9 hours; FIGS. 12C and 12F
# Protocol: Briefly, 96-well filterplates were assembled with leukocyte reduction membranes (Leukosorb; Pall) and placed over oligo(dT)-immobilized collection plates. 150 μL of 5 mmol/L Tris (pH 7.4) was applied to wet the filter membranes. After centrifugation at 120 g for 1 min at 4° C. to remove the Tris solution from the membranes, 50 μL of the stimulated whole blood samples was applied to each well and immediately centrifuged at 120 g for 2 min at 4° C. The wells were then washed once with 300 μL of phosphate-buffered saline. […]
# (§2) cDNA was synthesized directly in each well by addition of 30 μL of buffer containing 1× reverse transcription buffer [50 mM KCl, 10 mM Tris-HCl (pH 8.3), 5.5 mM MgCl2, 1 nL/μL Tween 20], 1.25 mM each deoxynucleoside triphosphate, 4 units of rRNasin, and 80 U of MMLV reverse transcriptase (Promega; without primers) and incubation at 37° C. for 2 h. […] The cycle threshold (Ct), i.e., the cycle at which certain amounts of PCR products (based on fluorescence) were generated, was determined with analytical software (SDS; Applied Biosystems). The ΔCt were determined by subtracting each Ct of PHA-treated sample from each Ct of PBS-treated control sample, and the fold increase was calculated by 2^-ΔCt.
# The time course of induction was also evaluated for two different incubation temperatures. […] ACTB, IL2, andCXCL9 mRNA were quantified.
# blood [5] = assay: PHA stimulation of blood: PHA-containing collection tubes vs multi-well strip; conditions: 37° C. for 4 hours; FIGS. 9A-9D
# Protocol: Blood collection tubes were manufactured as described above. Three tubes were stored at 4° C. (tubes PHA 4C #1, #2, and #3 in FIG. 9) or room temperature (PHA RT in FIG. 9) for 20 days. Blood was then drawn into 6 tubes: a control heparin tube, a plain heparin tube, and 4 PHA-containing tubes. The blood from the control heparin tube was stimulated (by PBS or PHA) in micro-plate tube strips (3 wells each, 60 μL blood/well). The remaining 5 tubes were incubated at 37° C. for 4 hours. Various mRNA were quantified by using SYBR green real time PCR as described previously (Mitsuhashi M et al. Clin. Chem. 52:634-642, 2006). […]
# as §2
# [6] = DNR 10 μM or AraC 100 μM final, 4 hours at 37° C., vs PBS
# [7] = DNR 10 μM or AraC 100 μM final, 4 hours at 37° C., vs PBS, FIGS. 11A-11B
# [8] = blood stored at 4° C. for 6 hours before ex vivo stimulation
molecule,measurement,setting,value
"Nc1ccn([C@@H]2O[C@H](CO)[C@@H](O)[C@@H]2O)c(=O)n1 [AraC, cytarabine]",PUMA expression induction,blood [1]; [6],induced
same,beta actin mRNA induction,blood [1]; [7],not induced
same,levels of both p21 and PUMA after 3 days of post-stimulation storage,blood [1],appear to have decreased
"COc1cccc2c1C(=O)c1c(O)c3c(c(O)c1C2=O)C[C@@](O)(C(C)=O)C[C@@H]3O[C@H]1C[C@H](N)[C@H](O)[C@H](C)O1 [DNR, daunorubicin]",PUMA expression induction,blood [1]; [6],induced
same,beta actin mRNA induction,blood [1]; [7],not induced
same,p21 mRNA induction,blood [1]; [7],significant induction
same,levels of both p21 and PUMA after 3 days of post-stimulation storage,blood [1],appear to have decreased
interferon alpha 2b [IFNa2b],"CXCL9 induction, portable device vs controlled incubators",blood [2],not significantly different
same,performance of IFNa2b tube vs conventional IFNa2b stimulation in strip wells,"blood [3]; 2 hours at 37° C. immediately after blood draw, FIGS. 10A-10C",identical
same,CXCL10 induction,blood [3]; [8],less induction
same,GIP2 induction,blood [3]; [8],less induction
same,CXCL-9 induction,blood [4],induced to a similar extent
phytohemaglutinin [PHA],"IL2 induction, portable device vs controlled incubators",blood [2],not significantly different
same,"mRNA (beta-actin, interferon gamma, interleukin 2, GM-CSF): stimulation in multi-well strip vs PHA-containing blood collection tubes",blood [5],no differences were detected
